# Assay results as given in patent US11149036B2, “3-(1H-pyrazol-4-yl)pyridine allosteric modulators of the M4 muscarinic acetylcholine receptor” (Merck Sharp & Dohme Corp., priority 2017, dated 2021).
# Target: T1, human M4 muscarinic acetylcholine receptor (Homo sapiens, UniProt P08173)
# T1 construct: expressed in transfected cells; host or cells: CHO-K1
# T1 sequence (P08173 1-479): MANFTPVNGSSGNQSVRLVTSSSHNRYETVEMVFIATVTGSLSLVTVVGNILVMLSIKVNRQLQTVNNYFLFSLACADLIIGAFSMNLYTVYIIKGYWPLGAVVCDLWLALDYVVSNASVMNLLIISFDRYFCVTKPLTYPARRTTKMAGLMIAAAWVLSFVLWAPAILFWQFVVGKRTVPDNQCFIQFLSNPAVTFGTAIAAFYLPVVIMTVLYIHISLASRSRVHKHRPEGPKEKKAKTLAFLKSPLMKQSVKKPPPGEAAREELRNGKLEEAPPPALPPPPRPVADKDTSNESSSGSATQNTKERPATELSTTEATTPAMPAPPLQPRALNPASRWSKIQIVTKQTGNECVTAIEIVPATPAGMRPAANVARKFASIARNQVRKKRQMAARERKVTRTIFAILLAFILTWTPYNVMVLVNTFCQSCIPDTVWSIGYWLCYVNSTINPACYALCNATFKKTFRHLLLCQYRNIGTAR
# Assay: human FLIPR-based M4 PAM assay (CHO-K1 cells with human M4 receptor and Gaqi5, calcium dye fluorescence)
# Format: cell-based
# Conditions: inflection point (IP) of dose response curve, acetylcholine added at 20% of maximum response, read-out: M4 FLIPPR Hu IP
# Summary of the method: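 CHO-K1 cells stably expressing human M4 with chimeric Gaqi5, calcium-dye loaded ~1 h at 37° C; compound added at increasing concentrations 4 min before acetylcholine at an EC20 concentration (sometimes a further EC70 addition).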
row,EC50 [nM],SMILES
1,102,"CC1(C)NC(=O)c2cc(-c3nc(C#N)ccc3-c3cnn(CC4(F)CCCC4)c3)ccc21 [Example 46, 6-(1,1-dimethyl-3-oxoisoindolin-5-yl)-5-(1-((1-fluorocyclopentyl)methyl)-1H-pyrazol-4-yl)picolinonitrile49]"
2,56,"N#Cc1ccc(-c2cnn(CC3(F)CCCC3)c2)c(-c2cnc3c(c2)C(=O)N(CCF)C3)n1 [Example 47, 5-(1-((1-fluorocyclopentyl)methyl)-1H-pyrazol-4-yl)-6-(6-(2-fluoroethyl)-5-oxo-6,7-dihydro-5H-pyrrolo[3,4-b]pyridin-3-yl)picolinonitrile]"
3,41,"Cn1cc2ccc(-c3nc(C#N)ccc3-c3cnn(CC4(F)CCCC4)c3)cc2n1 [Example 48, 5-(1-((1-fluorocyclopentyl)methyl)-1H-pyrazol-4-yl)-6-(2-methyl-2H-indazol-6-yl)picolinonitrile]"
4,107,"Cc1nc2cc(-c3nc(C#N)ccc3-c3cnn(CC4(F)CCCC4)c3)ccc2o1 [Example 49, 5-(1-((1-fluorocyclopentyl)methyl)-1H-pyrazol-4-yl)-6-(2-methylbenzo[d]oxazol-5-yl)picolinonitrile]"
5,27,"N#Cc1ccc(-c2cnn(CC3(F)CCCC3)c2)c(-c2ccn3ccnc3c2)n1 [Example 50, 5-(1-((1-fluorocyclopentyl)methyl)-1H-pyrazol-4-yl)-6-(imidazo[1,2-a]pyridin-7-yl)picolinonitrile]"
6,22,"N#Cc1ccc(-c2cnn(CC3(F)CCCC3)c2)c(-c2ccn3cc(C(F)(F)F)nc3c2)n1 [Example 51, 5-(1-((1-fluorocyclopentyl)methyl)-1H-pyrazol-4-yl)-6-(2-(trifluoromethyl)imidazo [1,2-a]pyridin-7-yl)picolinonitrile]"
7,10,"N#Cc1ccc(-c2cnn(CC3(F)CCCC3)c2)c(-c2ccn3cc(Cl)nc3c2)n1 [Example 52, 6-(2-chloroimidazol[1,2-a]pyridin-7-yl)-5-(1-((1-fluorocyclopentyl)methyl)-1H-pyrazol-4-yl)picolinonitrile]"
8,76,"N#Cc1ccc(-c2cnn(CC3(F)CCCC3)c2)c(-c2cnc3oc(C4CC4)nc3c2)n1 [Example 53, 6-(2-cyclopropyloxazolo[5,4-b]pyridin-6-yl)-5-(1-((1-fluorocyclopentyl)methyl)-1H-pyrazol-4-yl)picolinonitrile]"
9,36,"N#Cc1ccc(-c2cnn(CC3(F)CCCC3)c2)c(-c2ccn3cc(C4CC4)nc3c2)n1 [Example 54, 6-(2-cyclopropylimidazo[1,2-a]pyridin-7-yl)-5-(1-((1-fluorocyclopentyl)methyl)-1H-pyrazol-4-yl)picolinonitrile]"
10,35,"N#Cc1ccc(-c2cnn(CC3(F)CCCC3)c2)c(-c2cnc3c(c2)C(=O)N(CC2CC2)C3)n1 [Example 55, 6-(6-(cyclopropylmethyl)-5-oxo-6,7-dihydro-5H-pyrrolo[3,4-b]pyridin-3-yl)-5-(1-((1-fluorocyclopentyl)methyl)-1H-pyrazol-4-yl)picolinonitrile]"
11,41,"Cn1nnc2cc(-c3nc(C#N)ccc3-c3cnn(CC4(F)CCCC4)c3)ccc21 [Example 56, 5-(1-((1-fluorocyclopentyl)methyl)-1H-pyrazol-4-yl)-6-(1-methyl-1H-benzo[1,2,3]triazol-5-yl)picolinonitrile]"
12,16,"CCc1cn2ccc(-c3nc(C#N)ccc3-c3cnn(CC4(F)CCCC4)c3)cc2n1 [Example 57, 6-(2-ethylimidazo[1,2-a]pyridin-7-yl)-5-(1-((1-fluorocyclopentyl)methyl)-1H-pyrazol-4-yl)picolinonitrile]"
13,15,"N#Cc1ccc(-c2cnn(CC3(F)CCCC3)c2)c(-c2ccn3cc(C(F)F)nc3c2)n1 [Example 58, 6-(2-(difluoromethyl)imidazo [1,2-a]pyridin-7-yl)-5-(1-((1-fluorocyclopentyl)methyl)-1H-pyrazol-4-yl)picolinonitrile]"
